Here are results for eight molecules from US5238926A, “Anti-fungal agents” (priority 1992, dated 1993).

In general, MIC refers to the lowest concentration found to suppress growth.

Experiment [1] deals with Resistant Strains (Candida albicans C79, C6, C8, C31, C54, C70, C104, C138, C140; Candida stellatoidea C45). As to the kind of experiment: In vitro anti-fungal activity, microtiter minimum inhibitory concentration (MIC) test, resistant strains (MIC-R). Format: cell-based. The conditions noted are these: 48 h, pH 5.4, read-out: MIC-R. How it is done: (§1) The minimum inhibitory concentrations (MIC-R and MIC-S) were determined in accordance with the procedure set forth just below.
(§2) In vitro anti-fungal activity was determined in microtiter minimum inhibitory concentration (MIC) tests using Yeast Nitrogen […] (YNB without amino acids, Difco., Detroit, Mich.) at pH 5.4. Yeasts were grown overnight in Sabouraud Dextrose Broth. at 28° C. with shaking, and concentrations adjusted in sterile saline using a spectrophoptometer at 540 mμ. Compounds were dissolved in various vehicles and diluted in media to twice the final concentrations. The Cetus Pro/Pette system was used to serially dilute 50 μl in round bottom 96 well plates (Falcon, Lincoln Park, NJ.). The turbidometrically adjusted yeast suspensions were diluted 1:3,000 in YNB. These dilutions when added to the wells, produced a final inoculum of 3×10^3 /ml. Plates were incubated at 37° C. for 48 hours. MICs were defined as the lowest concentrations of compound that prevented visible growth. MICs were taken against the following organisms and expressed in the table above as the geometric mean. MIC-R and MIC-S mean respectively, MICs taken against resistant and sensitive strains.
Candida stellatoidea C45

The nature of experiment [2]: In vitro anti-fungal activity, microtiter minimum inhibitory concentration (MIC) test, sensitive strains (MIC-S). Format: cell-based. To be noted: 48 h, pH 5.4, read-out: MIC-S. How it is done:
as §1, §2
Candida parapsilosis C67
Candida tropicalis C112
Torulopsis glabrata C95
Candida pseudotropicalis C967
Candida gullermondii C137
Sacchararomyces mutant C147

In brackets after ≈: the same amount, converted by molar mass.

On to `CCCCCCCCCCCCNC(=O)[C@@H](NC(=O)[C@@H](N)C(C)CSC)[C@H]1O[C@@H](n2ccc(=O)[nH]c2=O)[C@H](O)[C@@H]1O` (stereo partly shown), for which the minimum inhibitory concentration (MIC) in experiment [1] was found to be 23 µg/mL (≈ 38.3 µM); in experiment [2], 34 µg/mL (≈ 56.7 µM).

For `CCCCCCCCCCCCNC(=O)[C@@H](NC(=O)C1(N)CC2CCC1C2)[C@H]1O[C@@H](n2ccc(=O)[nH]c2=O)[C@H](O)[C@@H]1O` (stereo partly shown), the MIC worked out at 104 µg/mL (≈ 176 µM) in experiment [1] and 315 µg/mL (≈ 532 µM) in experiment [2].

In the case of `CCCCCCCCCCCCNC(=O)[C@@H](NC(=O)[C@@H](N)CSCc1ccccc1)[C@H]1O[C@@H](n2ccc(=O)[nH]c2=O)[C@H](O)[C@@H]1O`, the MIC is 111 µg/mL (≈ 171 µM) in experiment [1] and greater than 147 µg/mL in experiment [2].

Consider `C=C[C@@H](C)[C@H](N)C(=O)N[C@H](C(=O)NCCCCCCCCCCCC)[C@H]1O[C@@H](n2ccc(=O)[nH]c2=O)[C@H](O)[C@@H]1O` [6'-dodecylamido-5-N-[2-S-amino-3-R-methyl-4-pentenoyl]-UPOC], for which the results for the MIC in experiment [1] and in experiment [2] were 18 µg/mL (≈ 31.8 µM) and 26 µg/mL (≈ 46 µM), respectively.

With `CCCCCCCCCCCCNC(=O)[C@@H](NC(=O)[C@@H](N)CCCC)[C@H]1O[C@@H](n2ccc(=O)[nH]c2=O)[C@H](O)[C@@H]1O`, the MIC in experiment [1] amounted to 13 µg/mL (≈ 22.9 µM); in experiment [2], 19.7 µg/mL (≈ 34.7 µM).

In the case of `CCCCCCCCCCCCNC(=O)[C@@H](NC(=O)[C@@H](N)CCOC)[C@H]1O[C@@H](n2ccc(=O)[nH]c2=O)[C@H](O)[C@@H]1O`, the MIC in experiment [1] is 52 µg/mL (≈ 91.3 µM); in experiment [2], 111 µg/mL (≈ 195 µM).

On to `CCCCCCCCCCCCNC(=O)[C@@H](NC(=O)[C@@H](N)CC[S+](C)[O-])[C@H]1O[C@@H](n2ccc(=O)[nH]c2=O)[C@H](O)[C@@H]1O` (stereo partly shown), for which the MIC in experiment [1] and in experiment [2] was 181 µg/mL (≈ 301 µM) in each case.

Regarding `CCCCCCCCCCC(N)C(=O)N[C@H](C(N)=O)[C@H]1O[C@@H](n2ccc(=O)[nH]c2=O)[C@H](O)[C@@H]1O` (stereo partly shown), the MIC in experiment [1] and in experiment [2] was greater than 256 µg/mL throughout.
